Results as given in US9844565B2, “Systems and methods for treatment of acne vulgaris and other conditions with a topical nitric oxide delivery system” (priority 2012, dated 2017).

Experiments:
[1] = tested on: micro-capillary blood flow to skin; test: Laser Doppler study with covered chamber in three human female subjects, 10,000 ppm NO (Example 5); assay type: in vivo; details: applied to the skin at 1/10% in alcohol
From the text: While nitric oxide has many physiological effects, the purpose of these studies was to measure physiological effects that would be relatively easy to determine, and which would be noninvasive. […] Nitric oxide is capable of […] the capillary bed, and thus, laser Doppler was selected.
The formulation used in these studies contained nitric oxide dispersed in a lipid matrix. […] Nitric oxide is a very rapid acting molecule, and these studies used a system that employed laser Doppler with a covered chamber. The formulation was placed into the chamber and then attached to the skin by an adhesive layer on the covering. This provided a stable measuring device as determined by multiple normal evaluations of the capillary blood flow without treatment of nitric oxide.
A known positive control, methyl nicotinate, was applied to the skin at a concentration of 1/10% in alcohol. […] The vascular dynamics are such that when the blood vessels dilate physical parameters follow Bernoulli's law. […] The laser Doppler device accurately measured these parameters. […]
A Moor Instruments DRT4 Laser Doppler Blood Flow Monitor (Devon, England) was used in these studies. The laser Doppler technique measured blood flow in the microcapillaries of the skin that are close to the skin surface and the blood flow in underlying arterioles and venules that help to regulate skin temperature. […]

[2] = tested on: capillary circulation of the skin; test: Laser Doppler study in five human subjects, 10,000 ppm NO formulation vs controls (Example 7); assay type: in vivo; details: positive control formulation containing 0.1% methyl nicotinate
From the text: This example illustrates delivery of nitric oxide formulations to five human subjects, using procedures and formulations similar to those discussed in Example 5. Each person served as their own control for the testing. A Moor Instruments Laser Doppler was used to determine circulation. […] The formulations used produce positive, almost immediate results when applied to the skin which, in these studies, was manifested by vasodilatation of the cutaneous vascular system.
For each subject, the following creams were applied: a negative control formulation (containing no NO), 0.010 gram of a 10,000 ppm NO formulation, 0.020 gram of a 10,000 ppm NO formulation, and a positive control formulation containing 0.1% methyl nicotinate. The formulations were prepared using procedures similar to those discussed in Example 1.

Structure (SMILES): COC(=O)c1cccnc1 [methyl nicotinate]
- laser Doppler response of positive control [1]: rapid response typical of the vasodilator
- vasodilatation (laser Doppler) [2]: vasodilatation was observed
